# Laboratory results as given in PMC5267425, “Identification of small molecule modulators of HIV-1 Tat and Rev protein accumulation” (Retrovirology, 2017).
# System: cellular gene expression in HeLa rtTA HIV∆Mls cells
smiles,measurement,value
"Cc1cc(NCc2cccnc2)n2ncc(-c3ccc(Cl)cc3)c2n1 [Compound 791, 3-(4-chlorophenyl)-5-methyl-N-(3-pyridinylmethyl)pyrazolo[1,5-a]pyrimidin-7-amine]",AARS Mean fold change,2.833
same,ABCC3 Mean fold change,2.692
same,ABCG1 Mean fold change,3.311
same,ABHD6 Mean fold change,1.566
same,AC004490.2 Mean fold change,2.204
same,AC006486.1 expression fold change,0.690
same,AC008763.1 expression fold change,0.679
same,AC009133.2 Mean fold change,1.588
same,AC010442.1 Mean fold change,1.579
same,AC013356.3 expression fold change,1.345
same,AC037487.1 expression fold change,1.347
same,AC068020.2 Mean fold change,2.561
same,AC092295.7 expression fold change,0.786
same,AC135352.1 Mean fold change,1.465
same,AC138904.2 Mean fold change,2.431
same,ACADVL Mean fold change,1.427
same,ACAP3 expression fold change,0.896
same,ACER2 expression fold change,1.385
same,ACN9 expression fold change,1.202
same,ACOT9 expression fold change,0.729
same,ACTN1 expression fold change,0.801
same,ADD1 expression fold change,0.880
same,ADI1 expression fold change,0.759
same,ADO expression fold change,1.398
same,AGPAT2 expression fold change,0.738
same,AGPAT9 Mean fold change,1.761
same,AGXT2L2 Mean fold change,1.839
same,AHCTF1 expression fold change,1.155
same,AIDA expression fold change,1.199
same,AIFM1 expression fold change,1.118
same,AKIRIN2 expression fold change,1.270
same,ALDH2 Mean fold change,1.928
same,ALDOC expression fold change,0.728
same,ALG5 expression fold change,1.288
same,ALKBH8 expression fold change,1.320
same,ALX1 expression fold change,1.051
same,ANKHD1 expression fold change,1.136
same,ANKRD40 expression fold change,1.260
same,ANKRD50 expression fold change,1.377
same,ANKS1A expression fold change,0.869
same,ANXA5 expression fold change,0.844
same,ANXA6 expression fold change,0.632
same,AP2M1 expression fold change,0.841
same,AP3S2 expression fold change,1.386
same,AP000926.1 Mean fold change,1.726
same,APBA3 expression fold change,1.129
same,APOBEC3B expression fold change,0.520
same,ARF1 expression fold change,0.787
same,ARF3 expression fold change,0.882
same,ARG2 Mean fold change,3.609
same,ARHGAP11A expression fold change,0.778
same,ARHGAP26 Mean fold change,1.819
same,ARHGEF2 Mean fold change,2.222
same,ARHGEF4 Mean fold change,1.690
same,ARL4D expression fold change,1.406
same,ARL17B Mean fold change,1.427
same,ARMC10 expression fold change,1.383
same,ARNTL Mean fold change,1.815
same,ARPC5 expression fold change,0.694
same,ARSJ expression fold change,1.309
same,ASB7 expression fold change,1.181
same,ASB8 expression fold change,1.184
same,ASCC1 expression fold change,1.134
same,ASNS Mean fold change,5.898
same,ASNSD1 expression fold change,1.208
same,ATF4 Mean fold change,1.683
same,ATG4B expression fold change,1.240
same,ATG12 expression fold change,1.178
same,ATG16L1 expression fold change,1.132
same,ATIC expression fold change,1.115
same,ATP2B1 Mean fold change,1.479
same,ATP5H expression fold change,1.145
same,ATP6AP1L Mean fold change,1.979
same,ATP6V0A1 expression fold change,0.795
same,ATP6V1B2 expression fold change,1.261
same,ATP8B1 expression fold change,0.527
same,ATXN7L2 expression fold change,1.076
same,AUP1 expression fold change,1.231
same,AVL9 expression fold change,1.338
same,AXIN1 expression fold change,1.266
same,B3GNT1 expression fold change,0.674
same,B3GNT5 Mean fold change,2.008
same,B4GALT5 expression fold change,1.380
same,BAT3 expression fold change,0.841
same,BAZ1B expression fold change,1.159
same,BCAR1 expression fold change,0.869
same,BCAR3 Mean fold change,1.528
same,BCL7A expression fold change,1.302
same,BCOR expression fold change,0.835
same,BCORL1 expression fold change,0.826
same,BEST1 Mean fold change,1.710
same,BHLHB9 expression fold change,0.836
same,BICD1 expression fold change,1.280
same,BIVM expression fold change,1.241
same,BMP2K expression fold change,1.246
same,BMPR1B expression fold change,0.758
same,BRWD2 expression fold change,1.126
same,BST2 expression fold change,0.606
same,BTRC expression fold change,1.086
same,BUD13 expression fold change,1.160
same,C1D expression fold change,0.907
same,C1orf27 expression fold change,1.263
same,C1orf43 Mean fold change,1.578
same,C1orf103 expression fold change,1.312
same,C1orf109 expression fold change,1.133
same,C1orf115 expression fold change,0.712
same,C1orf131 expression fold change,1.232
same,C2orf18 Mean fold change,2.057
same,C2orf44 expression fold change,1.212
same,C2orf49 expression fold change,1.330
same,C2orf60 Mean fold change,1.552
same,C3orf19 expression fold change,1.302
same,C3orf59 expression fold change,0.622
same,C4orf23 expression fold change,1.124
same,C4orf27 expression fold change,1.269
same,C4orf32 Mean fold change,1.456
same,C4orf43 expression fold change,1.083
same,C5orf13 expression fold change,0.675
same,C5orf15 expression fold change,0.799
same,C5orf30 expression fold change,1.191
same,C5orf37 expression fold change,1.270
same,C5orf45 expression fold change,1.325
same,C5orf51 expression fold change,1.347
same,C6orf48 Mean fold change,2.042
same,C6orf145 expression fold change,0.730
same,C7orf23 expression fold change,1.243
same,C7orf25 expression fold change,1.354
same,C7orf27 expression fold change,0.879
same,C7orf42 expression fold change,0.864
same,C7orf44 expression fold change,1.193
same,C9orf3 expression fold change,0.575
same,C9orf6 expression fold change,1.317
same,C9orf46 expression fold change,1.230
same,C9orf114 expression fold change,1.133
same,C9orf163 expression fold change,0.820
same,C10orf76 expression fold change,0.797
same,C10orf114 expression fold change,0.622
same,C11orf17 Mean fold change,1.495
same,C11orf57 expression fold change,1.379
same,C11orf73 expression fold change,1.274
same,C12orf35 expression fold change,1.357
same,C12orf41 Mean fold change,1.427
same,C12orf65 expression fold change,1.231
same,C12orf73 expression fold change,1.310
same,C13orf23 expression fold change,1.356
same,C14orf79 Mean fold change,1.679
same,C14orf104 expression fold change,1.167
same,C14orf147 expression fold change,0.683
same,C14orf167 Mean fold change,1.721
same,C15orf61 expression fold change,1.088
same,C16orf63 expression fold change,1.203
same,C16orf72 expression fold change,1.363
same,C17orf75 expression fold change,1.209
same,C17orf80 expression fold change,1.234
same,C18orf19 expression fold change,1.208
same,C18orf25 expression fold change,1.336
same,C18orf45 expression fold change,1.218
same,C19orf28 expression fold change,0.696
same,C19orf55 expression fold change,1.216
same,C19orf57 Mean fold change,2.062
same,C20orf29 expression fold change,0.759
same,C20orf177 expression fold change,1.123
same,C22orf23 Mean fold change,1.568
same,CA5B Mean fold change,1.804
same,CALD1 expression fold change,0.520
same,CAP2 expression fold change,0.518
same,CAPN1 expression fold change,0.764
same,CARS Mean fold change,2.332
same,CASC5 expression fold change,0.767
same,CASP8 expression fold change,1.182
same,CAT Mean fold change,1.598
same,CAV2 expression fold change,0.581
same,CC2D2A expression fold change,0.869
same,CCBL2 expression fold change,1.248
same,CCDC22 expression fold change,1.134
same,CCDC25 expression fold change,1.260
same,CCDC40 Mean fold change,1.891
same,CCDC41 expression fold change,1.182
same,CCDC55 expression fold change,1.136
same,CCDC85C expression fold change,0.665
same,CCDC91 Mean fold change,1.516
same,CCDC92 expression fold change,1.319
same,CCDC99 expression fold change,0.607
same,CCDC102A expression fold change,0.591
same,CCDC150 expression fold change,0.840
same,CCNB1IP1 Mean fold change,1.940
same,CCNJ expression fold change,1.250
same,CCNT2 expression fold change,1.170
same,CD276 expression fold change,0.827
same,CDADC1 expression fold change,1.201
same,CDC42EP3 expression fold change,0.641
same,CDK1 expression fold change,0.737
same,CDK4 expression fold change,1.239
same,CDK8 expression fold change,1.082
same,CDK17 expression fold change,1.247
same,CDKL1 expression fold change,0.840
same,CDKN2C expression fold change,0.598
same,CEBPG Mean fold change,3.507
same,CEP70 expression fold change,0.860
same,CES2 Mean fold change,1.537
same,CGN expression fold change,0.519
same,CGRRF1 Mean fold change,1.453
same,CHAC1 Mean fold change,6.989
same,CHCHD4 expression fold change,1.327
same,CHN1 expression fold change,0.798
same,CHN2 expression fold change,1.345
same,CLCN2 expression fold change,1.278
same,CLCN5 Mean fold change,1.584
same,CLEC2D Mean fold change,1.905
same,CLIC4 Mean fold change,1.468
same,CLPTM1L expression fold change,0.747
same,CLUAP1 Mean fold change,1.416
same,CNN2 expression fold change,0.712
same,CNNM3 expression fold change,0.809
same,CNOT4 expression fold change,1.191
same,COG1 expression fold change,1.328
same,COG8 expression fold change,1.183
same,COL4A3BP Mean fold change,1.572
same,COMMD1 expression fold change,0.832
same,COMMD4 expression fold change,0.856
same,COPS7B Mean fold change,1.473
same,COX7A2L expression fold change,1.194
same,COX7A2 expression fold change,0.949
same,COX19 expression fold change,1.369
same,CPD Mean fold change,1.588
same,CREB1 expression fold change,1.234
same,CRTC3 expression fold change,0.714
same,CSE1L expression fold change,0.867
same,CSGALNACT2 expression fold change,1.343
same,CSNK1A1 Mean fold change,1.528
same,CSNK2A1 expression fold change,1.245
same,CSRNP2 expression fold change,1.269
same,CSRP2BP Mean fold change,1.435
same,CSRP2 expression fold change,0.574
same,CST3 expression fold change,1.145
same,CTC-241N9.1 Mean fold change,1.850
same,CTD-2526A2.1 Mean fold change,1.524
same,CTH Mean fold change,2.646
same,CTNND1 expression fold change,0.683
same,CTSL1 Mean fold change,1.489
same,CTTNBP2 expression fold change,0.629
same,CUEDC2 expression fold change,1.278
same,CWC25 expression fold change,1.169
same,CXADR expression fold change,1.102
same,CYFIP1 expression fold change,0.887
same,CYP2R1 Mean fold change,1.818
same,CYP2S1 expression fold change,1.098
same,CYTH3 expression fold change,0.536
same,DAB2 expression fold change,0.623
same,DAG1 expression fold change,0.608
same,DAGLB expression fold change,0.867
same,DBF4B expression fold change,0.760
